Data from ChEMBL document CHEMBL5316293, “Novel Small-Molecule PD-L1 Inhibitor Induces PD-L1 Internalization and Optimizes the Immune Microenvironment” (J Med Chem, 2023).
Calls of active or inactive are those of the source. No cut-off for these calls is given here.

Key:
LLC-hPD-L1 [1] = assay: Antitumor activity against humanized mouse LLC-hPD-L1 cells implanted in hPD-1 knockin C57BL/6 mouse assessed as reduction in M2 macrophages at 10 to 25 mg/kg, ip administered for 12 days starting from day 7 post tumor implantation by flow cytometry analysis; assay type: functional, organism-based; conditions: dose 10-25 mg/kg, time 12.0 day
MC38-hPD-L1 [2] = assay: Antitumor activity against humanized mouse MC38-hPD-L1 cells implanted in hPD-1 knockin C57BL/6 mouse assessed as increase in IFN-gamma level at 10 to 25 mg/kg, ip administered for 12 days starting from day 7 post tumor implantation by flow cytometry analysis; assay type: functional, organism-based; conditions: dose 10-25 mg/kg, time 12.0 day
LLC-hPD-L1 [3] = assay: Antitumor activity against humanized mouse LLC-hPD-L1 cells implanted in hPD-1 knockin C57BL/6 mouse assessed as increase in GzmB level at 10 to 25 mg/kg, ip administered for 12 days starting from day 7 post tumor implantation by flow cytometry analysis; assay type: functional, organism-based; conditions: dose 10-25 mg/kg, time 12.0 day
[4] = Toxicity in hPD-1 knockin C57BL/6 mouse implanted with humanized mouse LLC-hPD-L1 cells assessed as reduction in body weight at 10 to 25 mg/kg, ip administered for 12 days starting from day 7 post tumor implantation and measured every 3 to 4 days; assay type: organism-based; conditions: in vivo, 288 h, dose 10-25 mg/kg, time 12 day
[5] = target: T1, Programmed cell death 1 ligand 1 (Homo sapiens, UniProt Q9NZQ7); assay: Binding affinity to human PD-L1 assessed as dissociation constant by MST analysis
T1 sequence (Q9NZQ7 whole entry): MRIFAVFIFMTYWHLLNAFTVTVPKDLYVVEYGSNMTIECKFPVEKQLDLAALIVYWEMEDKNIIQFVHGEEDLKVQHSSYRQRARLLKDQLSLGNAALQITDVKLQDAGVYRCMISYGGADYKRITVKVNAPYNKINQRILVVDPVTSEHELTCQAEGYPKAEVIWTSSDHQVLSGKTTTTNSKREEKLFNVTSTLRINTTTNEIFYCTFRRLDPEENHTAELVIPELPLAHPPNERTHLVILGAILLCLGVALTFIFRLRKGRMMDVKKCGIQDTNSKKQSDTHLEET

MC38-hPD-L1 [6] = assay: (§1) Antitumor activity against humanized mouse MC38-hPD-L1 cells implanted in hPD-1 knockin C57BL/6 mouse assessed as reduction in MDSC cells at 10 to 25 mg/kg, ip administered for 12 days starting from day 7 post tumor implantation by flow cytometry analysis; assay type: functional, organism-based; conditions: dose 10-25 mg/kg, time 12.0 day
Homo sapiens [7] = organism: Homo sapiens; assay: Internalization of PD-L1 in cytoplasm of human RKO cells assessed as decrease in PD-L1 concentration in cell membrane at 1 micromol/L incubated for 6 hrs by fluorescence microscopy; assay type: functional, cell-based; conditions: dose 1.0 µmol/L
MC38-hPD-L1 [8] = assay: as §1, with “tumor cell proliferation by measuring reduction in Ki67 expression” for “MDSC cells”, “immunohistochemistry” for “flow cytometry”; assay type: functional, organism-based; conditions: dose 10-25 mg/kg, time 12.0 day
[9] = Half life in ICR mouse at 5 mg/kg, iv; assay type: ADME, organism-based; conditions: in vivo
MC38-hPD-L1 [10] = assay: Antitumor activity against humanized mouse MC38-hPD-L1 cells implanted in hPD-1 knockin C57BL/6 mouse assessed as increase in CD69-positive CD137-positive T cells at 10 to 25 mg/kg, ip administered for 12 days starting from day 7 post tumor implantation by flow cytometry analysis; assay type: functional, organism-based; conditions: dose 10-25 mg/kg, time 12.0 day
[11] = target: Programmed cell death protein 1/Programmed cell death 1 ligand 1 (Homo sapiens) (UniProt Q15116+Q9NZQ7); assay: Inhibition of PD-1/PD-L1 interaction in human A549 cells harboring low level PD-L1 expression assessed as increase in transcriptional-mediated bioluminescent signal preincubated with compound followed by washout and further cultured with Jurkat cells transfected with NFAT luciferase by bio-glo reagent based assay; assay type: cell-based; conditions: dose 50-200 nM
MC38-hPD-L1 [12] = assay: Antitumor activity against humanized mouse MC38-hPD-L1 cells implanted in hPD-1 knockin C57BL/6 mouse assessed as tumor growth inhibition at 25 mg/kg, ip administered for 12 days starting from day 7 post tumor implantation and measured every 2 days relative to control; assay type: functional; conditions: MC38-hPD-L1, 288 h, time 12 day, read-out: TGI
LLC-hPD-L1 [13] = assay: Antitumor activity against humanized mouse LLC-hPD-L1 cells implanted in hPD-1 knockin C57BL/6 mouse assessed as increase in M1 macrophages at 10 to 25 mg/kg, ip administered for 12 days starting from day 7 post tumor implantation by flow cytometry analysis; assay type: functional, organism-based; conditions: dose 10-25 mg/kg, time 12.0 day
LLC-hPD-L1 [14] = assay: Antitumor activity against humanized mouse LLC-hPD-L1 cells implanted in hPD-1 knockin C57BL/6 mouse assessed as increase in IFN-gamma level at 10 to 25 mg/kg, ip administered for 12 days starting from day 7 post tumor implantation by flow cytometry analysis; assay type: functional, organism-based; conditions: dose 10-25 mg/kg, time 12.0 day
LLC-hPD-L1 [15] = assay: (§2) Antitumor activity against humanized mouse LLC-hPD-L1 cells implanted in hPD-1 knockin C57BL/6 mouse assessed as reduction in tumor cell proliferation by measuring reduction in Ki67 expression administered intraperitoneally for 12 days starting from day 7 post tumor implantation by immunohistochemistry analysis; assay type: functional, cell-based; conditions: dose 10-25 mg/kg, route ip, time 12.0 day
[16] = Toxicity in ICR mouse assessed as animal death at 5000 mg/kg, po administered via gavage for 2 weeks; assay type: organism-based; conditions: in vivo, 336 h
MC38-hPD-L1 [17] = assay: Antitumor activity against humanized mouse MC38-hPD-L1 cells implanted in hPD-1 knockin C57BL/6 mouse assessed as increase in M1 macrophages at 10 to 25 mg/kg, ip administered for 12 days starting from day 7 post tumor implantation by flow cytometry analysis; assay type: functional, organism-based; conditions: dose 10-25 mg/kg, time 12.0 day
MC38-hPD-L1 [18] = assay: Antitumor activity against humanized mouse MC38-hPD-L1 cells implanted in hPD-1 knockin C57BL/6 mouse assessed as tumor growth inhibition at 10 mg/kg, ip administered for 12 days starting from day 7 post tumor implantation and measured every 2 days relative to control; assay type: functional; conditions: MC38-hPD-L1, 288 h, time 12 day, read-out: TGI
[19] = target: T1, Programmed cell death 1 ligand 1; assay: Inhibition of PD-1 Fc IgG fusion protein binding to PD-L1 in human NCI-H460 cells incubated for 6 hrs by DAPI/PD-1 anti-human IgG DyLight 488 staining based fluorescence microscopy; assay type: cell-based
LLC-hPD-L1 [20] = assay: Antitumor activity against humanized mouse LLC-hPD-L1 cells implanted in hPD-1 knockin C57BL/6 mouse assessed as reduction in Treg cells at 10 to 25 mg/kg, ip administered for 12 days starting from day 7 post tumor implantation by flow cytometry analysis; assay type: functional, organism-based; conditions: dose 10-25 mg/kg, time 12.0 day
LLC-hPD-L1 [21] = assay: Antitumor activity against humanized mouse LLC-hPD-L1 cells implanted in hPD-1 knockin C57BL/6 mouse assessed as macrophage polarization into M1 phenotype at 25 mg/kg, ip administered for 12 days starting from day 7 post tumor implantation by flow cytometry analysis; assay type: functional, organism-based; conditions: time 12.0 day
MC38-hPD-L1 [22] = assay: Antitumor activity against humanized mouse MC38-hPD-L1 cells implanted in BALB/c nude mouse assessed as reduction in tumor growth at 10 to 25 mg/kg, ip administered for 10 days starting from day 6 post tumor implantation and measured every 2 days; assay type: functional, organism-based; conditions: dose 10-25 mg/kg, time 10.0 day
LLC-hPD-L1 [23] = assay: as §2, with “increase” for “reduction”, “apoptosis” for “proliferation”, “cleaved caspase-3 level” for “Ki67 expression”; assay type: functional, cell-based; conditions: dose 10-25 mg/kg, route ip, time 12.0 day
[24] = Toxicity in hPD-1 knockin C57BL/6 mouse implanted with humanized mouse MC38-hPD-L1 cells assessed as reduction in body weight at 10 to 25 mg/kg, ip administered for 12 days starting from day 7 post tumor implantation and measured every 3 to 4 days; assay type: organism-based; conditions: in vivo, 288 h, dose 10-25 mg/kg, time 12 day
Homo sapiens [25] = organism: Homo sapiens; assay: Internalization of PD-L1 in cytoplasm of human RKO cells transfected with DsRed and human calreticulin assessed as colocalization of PD-L1 with endoplasmic reticulum-resident calreticulin at 1 micromol/L incubated for 12 hrs by fluorescence microscopy; assay type: functional, cell-based; conditions: dose 1.0 µmol/L
LLC-hPD-L1 [26] = assay: Antitumor activity against humanized mouse LLC-hPD-L1 cells implanted in hPD-1 knockin C57BL/6 mouse assessed as increase in CD8-positive T cells at 10 to 25 mg/kg, ip administered for 12 days starting from day 7 post tumor implantation by flow cytometry analysis; assay type: functional, organism-based; conditions: dose 10-25 mg/kg, time 12.0 day
Homo sapiens [27] = organism: Homo sapiens; assay: Internalization of PD-L1 in cytoplasm of human RKO cells assessed as increase in PD-L1 concentration in cytoplasm at 1 micromol/L incubated for 6 hrs by fluorescence microscopy; assay type: functional, cell-based; conditions: dose 1.0 µmol/L

COc1cc2c(cc1CN[C@@H](CO)C(=O)O)C(=O)N(c1cccc(-c3ccccc3)c1C)C2=O
Activity (LLC-hPD-L1 [1]): Active
Activity (MC38-hPD-L1 [2]): Active
Activity (LLC-hPD-L1 [3]): Active
Activity [4]: Non-Toxic
Kd [5]: 71.4 nM
Activity (MC38-hPD-L1 [6]): Active
Activity (Homo sapiens [7]): Active
Activity (MC38-hPD-L1 [8]): Active
half-life [9]: 9.78 h
Activity (MC38-hPD-L1 [10]): Active
inhibition [11]: Dose-Dependent Effect
inhibition in vivo at 25 mg/kg (MC38-hPD-L1 [12]): 88.8%
Activity (LLC-hPD-L1 [13]): Active
Activity (LLC-hPD-L1 [14]): Active
Activity (LLC-hPD-L1 [15]): Dose-Dependent Effect
Activity [16]: Non-Toxic
Activity (MC38-hPD-L1 [17]): Active
inhibition in vivo at 10 mg/kg (MC38-hPD-L1 [18]): 65.9%
EC50 [19]: 121 nM
Activity (LLC-hPD-L1 [20]): Active
Activity (LLC-hPD-L1 [21]): Active
Activity (MC38-hPD-L1 [22]): inactive
Activity (LLC-hPD-L1 [23]): Dose-Dependent Effect
Activity [24]: Non-Toxic
Activity (Homo sapiens [25]): Active
Activity (LLC-hPD-L1 [26]): Active
Activity (Homo sapiens [27]): Active
